According to ChEMBL document CHEMBL5465560, “Selectivity Literature for EUbOPEN Chemogenomic Library” (2024):

Legend:
[1] = molecular target: T1, Protein kinase C iota type (Homo sapiens) (UniProt P41743); assay: Selectivity interaction (KinomeScan (DiscoverX)) EUB0000229b PRKCI; details: at 10 µM
T1 sequence (whole entry): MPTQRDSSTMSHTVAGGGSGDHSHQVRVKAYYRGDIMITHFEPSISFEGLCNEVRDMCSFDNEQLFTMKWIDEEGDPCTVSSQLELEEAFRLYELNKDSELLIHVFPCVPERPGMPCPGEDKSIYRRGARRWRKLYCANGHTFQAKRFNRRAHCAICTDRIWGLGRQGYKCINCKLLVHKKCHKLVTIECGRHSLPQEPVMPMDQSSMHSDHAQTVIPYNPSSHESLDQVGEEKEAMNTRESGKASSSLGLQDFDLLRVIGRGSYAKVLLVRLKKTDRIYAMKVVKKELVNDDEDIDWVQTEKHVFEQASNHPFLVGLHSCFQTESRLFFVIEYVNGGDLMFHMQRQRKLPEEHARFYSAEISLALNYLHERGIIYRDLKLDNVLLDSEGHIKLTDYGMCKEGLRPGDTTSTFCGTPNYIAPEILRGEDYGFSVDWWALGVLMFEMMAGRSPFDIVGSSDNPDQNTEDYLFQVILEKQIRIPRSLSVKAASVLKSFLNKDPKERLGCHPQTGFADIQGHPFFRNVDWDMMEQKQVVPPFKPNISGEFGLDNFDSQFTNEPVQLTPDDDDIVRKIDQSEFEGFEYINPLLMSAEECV

[2] = molecular target: Ribosomal protein S6 kinase alpha-2 (Homo sapiens) (UniProt Q15349); assay: Selectivity interaction (KinomeScan (DiscoverX)) EUB0000311b RPS6KA2; details: at 1 µM
[3] = molecular target: Phosphorylase b kinase gamma catalytic chain, skeletal muscle/heart isoform (Homo sapiens) (UniProt Q16816); assay: Selectivity interaction (KinomeScan (DiscoverX)) EUB0001079a PHKG1; details: at 1 µM
Phosphorylase b kinase gamma catalytic chain, skeletal muscle/heart isoform (Homo sapiens), sequence (Q16816 whole entry, looked up, canonical isoform): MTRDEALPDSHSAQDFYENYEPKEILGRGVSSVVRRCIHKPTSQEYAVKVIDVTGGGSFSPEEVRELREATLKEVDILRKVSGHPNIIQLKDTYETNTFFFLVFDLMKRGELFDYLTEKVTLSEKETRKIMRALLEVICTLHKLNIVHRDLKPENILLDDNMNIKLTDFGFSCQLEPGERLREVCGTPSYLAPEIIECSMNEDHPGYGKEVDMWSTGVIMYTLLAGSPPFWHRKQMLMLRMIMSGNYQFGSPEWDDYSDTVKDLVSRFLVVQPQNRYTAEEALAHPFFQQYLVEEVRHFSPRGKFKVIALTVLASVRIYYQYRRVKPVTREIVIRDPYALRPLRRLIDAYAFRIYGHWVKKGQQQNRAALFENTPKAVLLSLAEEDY

[4] = molecular target: Receptor-interacting serine/threonine-protein kinase 2 (Homo sapiens, UniProt O43353); assay: Selectivity interaction (KinomeScan (DiscoverX)) EUB0000666a RIPK2; details: at 10 µM
Receptor-interacting serine/threonine-protein kinase 2, sequence (O43353 whole entry): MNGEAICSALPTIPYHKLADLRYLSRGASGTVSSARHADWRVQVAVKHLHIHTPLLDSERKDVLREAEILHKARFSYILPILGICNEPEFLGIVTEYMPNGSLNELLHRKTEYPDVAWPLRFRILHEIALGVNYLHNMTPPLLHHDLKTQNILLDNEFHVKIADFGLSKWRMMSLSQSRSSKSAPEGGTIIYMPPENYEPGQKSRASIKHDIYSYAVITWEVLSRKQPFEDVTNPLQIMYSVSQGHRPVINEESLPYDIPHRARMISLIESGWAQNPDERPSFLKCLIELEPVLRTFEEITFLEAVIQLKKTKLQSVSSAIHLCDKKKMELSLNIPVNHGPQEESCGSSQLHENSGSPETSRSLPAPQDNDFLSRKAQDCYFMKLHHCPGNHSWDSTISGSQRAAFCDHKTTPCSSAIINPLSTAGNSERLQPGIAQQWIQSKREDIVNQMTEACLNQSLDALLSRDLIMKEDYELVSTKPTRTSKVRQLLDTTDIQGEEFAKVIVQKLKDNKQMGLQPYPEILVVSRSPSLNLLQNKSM

[5] = molecular target: Casein kinase II subunit alpha' (Homo sapiens) (UniProt P19784); assay: Selectivity interaction (KinomeScan (DiscoverX)) EUB0000666a CSNK2A2; details: at 10 µM
Casein kinase II subunit alpha' (Homo sapiens), sequence (P19784 whole entry, looked up): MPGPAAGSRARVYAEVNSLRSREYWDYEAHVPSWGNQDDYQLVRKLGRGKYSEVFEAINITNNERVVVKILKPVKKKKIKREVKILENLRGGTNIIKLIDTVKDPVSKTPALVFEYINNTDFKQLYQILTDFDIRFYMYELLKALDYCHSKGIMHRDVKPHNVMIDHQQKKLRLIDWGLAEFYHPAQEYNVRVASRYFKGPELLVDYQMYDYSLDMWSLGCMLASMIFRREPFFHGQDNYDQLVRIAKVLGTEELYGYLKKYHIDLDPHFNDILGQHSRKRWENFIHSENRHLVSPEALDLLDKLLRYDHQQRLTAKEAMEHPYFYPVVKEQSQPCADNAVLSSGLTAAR

[6] = molecular target: SRSF protein kinase 2 (Homo sapiens) (UniProt P78362); details: at 10 µM
SRSF protein kinase 2 (Homo sapiens), sequence (P78362 whole entry, looked up): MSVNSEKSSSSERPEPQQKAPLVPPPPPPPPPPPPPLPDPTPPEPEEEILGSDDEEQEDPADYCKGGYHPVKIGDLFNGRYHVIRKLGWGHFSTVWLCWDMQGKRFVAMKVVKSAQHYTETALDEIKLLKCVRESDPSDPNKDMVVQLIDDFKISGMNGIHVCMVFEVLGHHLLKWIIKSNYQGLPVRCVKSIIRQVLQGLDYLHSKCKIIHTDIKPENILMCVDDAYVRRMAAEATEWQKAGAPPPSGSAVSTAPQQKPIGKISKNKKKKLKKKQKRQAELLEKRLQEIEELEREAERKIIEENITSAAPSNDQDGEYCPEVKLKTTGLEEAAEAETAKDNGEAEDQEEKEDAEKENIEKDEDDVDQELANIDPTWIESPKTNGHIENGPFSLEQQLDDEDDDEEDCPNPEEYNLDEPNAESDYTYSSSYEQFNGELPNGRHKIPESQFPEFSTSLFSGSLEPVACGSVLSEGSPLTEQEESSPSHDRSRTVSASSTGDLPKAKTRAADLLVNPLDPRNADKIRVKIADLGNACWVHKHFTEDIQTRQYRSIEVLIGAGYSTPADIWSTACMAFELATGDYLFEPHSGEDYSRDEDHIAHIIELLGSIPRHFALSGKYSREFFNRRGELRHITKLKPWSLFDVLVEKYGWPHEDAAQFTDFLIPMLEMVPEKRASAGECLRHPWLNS

[7] = molecular target: T2, RNA 5'-monophosphate methyltransferase (Homo sapiens) (UniProt Q7Z5W3); assay: Selectivity interaction (Methyltransferase screen (radiometric assays, panel of 8 PRMTs, 21 protein lysine methyltransferases, 3 DNA methyltransferases, and one RNA methyltransferase)) EUB0000271b BCDIN3D
T2 sequence (whole entry): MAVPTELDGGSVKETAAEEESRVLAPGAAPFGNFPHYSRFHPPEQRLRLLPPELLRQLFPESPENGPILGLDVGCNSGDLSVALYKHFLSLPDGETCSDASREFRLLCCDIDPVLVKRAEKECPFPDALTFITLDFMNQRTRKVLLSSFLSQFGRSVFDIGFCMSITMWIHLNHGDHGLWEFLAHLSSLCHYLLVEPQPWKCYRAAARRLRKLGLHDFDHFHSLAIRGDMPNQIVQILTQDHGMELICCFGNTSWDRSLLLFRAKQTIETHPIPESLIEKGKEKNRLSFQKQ

[8] = molecular target: T3, Inhibitor of nuclear factor kappa-B kinase subunit beta (Homo sapiens) (UniProt O14920); assay: Selectivity interaction (ActivX KiNativ screen (ex vivo kinase selectivity in human PBMCs)) EUB0001619a IKBKB; assay type: cell-based; details: PBMC, at 1 µM
T3 sequence (whole entry): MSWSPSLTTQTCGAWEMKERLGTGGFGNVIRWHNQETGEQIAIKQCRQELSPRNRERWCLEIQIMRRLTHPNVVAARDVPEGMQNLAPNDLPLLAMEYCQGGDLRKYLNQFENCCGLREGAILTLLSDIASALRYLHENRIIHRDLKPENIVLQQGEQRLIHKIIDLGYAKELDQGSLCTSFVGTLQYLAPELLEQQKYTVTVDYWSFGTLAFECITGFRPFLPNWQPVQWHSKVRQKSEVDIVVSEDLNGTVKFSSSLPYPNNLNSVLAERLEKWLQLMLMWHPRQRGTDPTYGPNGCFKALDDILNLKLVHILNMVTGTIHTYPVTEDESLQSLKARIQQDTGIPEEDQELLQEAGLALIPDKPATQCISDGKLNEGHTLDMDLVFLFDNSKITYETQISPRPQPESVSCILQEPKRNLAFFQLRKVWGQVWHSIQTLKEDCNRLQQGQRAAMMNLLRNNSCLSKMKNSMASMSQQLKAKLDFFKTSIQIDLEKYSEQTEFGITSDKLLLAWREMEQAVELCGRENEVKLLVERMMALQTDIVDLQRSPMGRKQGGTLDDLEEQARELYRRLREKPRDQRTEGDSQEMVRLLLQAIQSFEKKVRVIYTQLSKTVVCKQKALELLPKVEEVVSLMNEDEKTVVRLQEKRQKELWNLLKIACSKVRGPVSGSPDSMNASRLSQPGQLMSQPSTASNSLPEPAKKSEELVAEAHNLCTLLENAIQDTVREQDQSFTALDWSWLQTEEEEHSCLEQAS

[9] = molecular target: Ribosomal protein S6 kinase alpha-1 (Homo sapiens, UniProt Q15418); assay: Selectivity interaction (KinomeScan (DiscoverX)) EUB0000607a RPS6KA1; details: at 10 µM
Ribosomal protein S6 kinase alpha-1, sequence (Q15418 whole entry): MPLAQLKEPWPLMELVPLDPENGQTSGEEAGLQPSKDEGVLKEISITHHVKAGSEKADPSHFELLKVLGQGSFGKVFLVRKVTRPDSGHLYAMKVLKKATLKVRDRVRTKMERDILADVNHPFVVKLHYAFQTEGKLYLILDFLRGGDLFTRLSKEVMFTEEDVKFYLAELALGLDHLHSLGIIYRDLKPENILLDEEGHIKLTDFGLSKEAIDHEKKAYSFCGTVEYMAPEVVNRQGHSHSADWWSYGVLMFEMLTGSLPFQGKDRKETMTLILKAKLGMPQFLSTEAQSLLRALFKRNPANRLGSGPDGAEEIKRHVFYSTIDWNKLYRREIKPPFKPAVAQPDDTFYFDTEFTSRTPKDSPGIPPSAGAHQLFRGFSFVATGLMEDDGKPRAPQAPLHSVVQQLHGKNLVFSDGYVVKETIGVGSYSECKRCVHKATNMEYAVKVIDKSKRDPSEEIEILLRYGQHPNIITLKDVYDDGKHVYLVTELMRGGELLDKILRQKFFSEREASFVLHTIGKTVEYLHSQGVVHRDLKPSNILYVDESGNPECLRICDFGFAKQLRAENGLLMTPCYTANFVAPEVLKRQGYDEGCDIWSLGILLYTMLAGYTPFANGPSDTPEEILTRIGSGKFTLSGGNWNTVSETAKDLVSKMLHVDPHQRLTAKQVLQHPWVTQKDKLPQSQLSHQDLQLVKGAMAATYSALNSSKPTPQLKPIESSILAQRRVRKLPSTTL

[10] = molecular target: Serine/threonine-protein kinase PAK 2 (Homo sapiens) (UniProt Q13177); assay: Selectivity interaction (KinomeScan (DiscoverX)) EUB0000607a PAK2; details: at 10 µM
Serine/threonine-protein kinase PAK 2 (Homo sapiens), sequence (Q13177 whole entry): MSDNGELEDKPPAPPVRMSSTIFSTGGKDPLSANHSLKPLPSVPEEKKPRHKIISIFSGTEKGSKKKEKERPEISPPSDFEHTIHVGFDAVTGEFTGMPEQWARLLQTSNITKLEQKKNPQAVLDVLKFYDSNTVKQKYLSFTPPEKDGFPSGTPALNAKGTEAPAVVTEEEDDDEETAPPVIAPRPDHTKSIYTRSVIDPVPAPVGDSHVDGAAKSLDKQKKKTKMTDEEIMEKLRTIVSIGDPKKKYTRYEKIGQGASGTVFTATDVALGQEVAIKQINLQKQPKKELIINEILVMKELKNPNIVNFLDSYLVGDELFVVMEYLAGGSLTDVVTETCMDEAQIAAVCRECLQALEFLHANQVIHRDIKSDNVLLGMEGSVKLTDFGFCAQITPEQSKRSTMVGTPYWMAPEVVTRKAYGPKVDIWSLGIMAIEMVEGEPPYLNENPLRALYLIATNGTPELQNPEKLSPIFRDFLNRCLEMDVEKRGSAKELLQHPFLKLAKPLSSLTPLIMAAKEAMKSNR

[11] = molecular target: Serine/threonine-protein kinase mTOR (Homo sapiens, UniProt P42345); assay: Selectivity interaction (KinomeScan (DiscoverX)) EUB0000607a MTOR; details: at 10 µM
[12] = molecular target: Protein-tyrosine kinase 2-beta (Homo sapiens) (UniProt Q14289); assay: Selectivity interaction (ActivX KiNativ screen (kinase selectivity in THP-1 cell lysates)) EUB0000639a PTK2B; assay type: subcellular; details: lysate, at 5 µM
Protein-tyrosine kinase 2-beta (Homo sapiens), sequence (Q14289 whole entry, looked up): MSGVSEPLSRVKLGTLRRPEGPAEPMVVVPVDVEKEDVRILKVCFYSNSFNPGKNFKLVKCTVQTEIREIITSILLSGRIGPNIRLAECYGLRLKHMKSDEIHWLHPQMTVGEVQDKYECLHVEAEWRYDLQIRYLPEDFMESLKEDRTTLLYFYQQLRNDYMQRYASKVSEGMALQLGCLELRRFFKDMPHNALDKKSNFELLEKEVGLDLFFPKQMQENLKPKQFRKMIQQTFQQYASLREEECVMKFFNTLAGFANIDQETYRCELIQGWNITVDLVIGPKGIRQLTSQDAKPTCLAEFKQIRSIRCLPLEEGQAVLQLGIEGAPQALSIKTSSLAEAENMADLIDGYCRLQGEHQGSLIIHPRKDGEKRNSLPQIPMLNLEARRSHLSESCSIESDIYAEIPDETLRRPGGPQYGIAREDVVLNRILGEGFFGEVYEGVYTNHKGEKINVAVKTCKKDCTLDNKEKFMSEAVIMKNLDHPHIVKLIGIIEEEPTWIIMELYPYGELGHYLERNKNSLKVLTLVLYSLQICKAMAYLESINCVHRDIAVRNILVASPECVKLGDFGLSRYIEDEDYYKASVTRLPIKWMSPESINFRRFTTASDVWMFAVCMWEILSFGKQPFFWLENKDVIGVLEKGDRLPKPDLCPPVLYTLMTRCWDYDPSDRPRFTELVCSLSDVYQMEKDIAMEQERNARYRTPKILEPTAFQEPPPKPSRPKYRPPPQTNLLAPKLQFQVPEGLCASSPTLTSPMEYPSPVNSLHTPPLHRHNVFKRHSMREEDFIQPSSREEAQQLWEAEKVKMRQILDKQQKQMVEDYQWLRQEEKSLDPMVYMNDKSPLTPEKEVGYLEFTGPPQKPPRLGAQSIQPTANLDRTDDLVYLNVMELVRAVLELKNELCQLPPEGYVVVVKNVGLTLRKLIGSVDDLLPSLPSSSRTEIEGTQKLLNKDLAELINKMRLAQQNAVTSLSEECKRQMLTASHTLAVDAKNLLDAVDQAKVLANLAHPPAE

[13] = molecular target: 5'-AMP-activated protein kinase catalytic subunit alpha-2 (Homo sapiens) (UniProt P54646); assay: Selectivity interaction (KinomeScan (DiscoverX)) EUB0000092b PRKAA2; details: at 10 µM
5'-AMP-activated protein kinase catalytic subunit alpha-2 (Homo sapiens), sequence (P54646 whole entry, looked up): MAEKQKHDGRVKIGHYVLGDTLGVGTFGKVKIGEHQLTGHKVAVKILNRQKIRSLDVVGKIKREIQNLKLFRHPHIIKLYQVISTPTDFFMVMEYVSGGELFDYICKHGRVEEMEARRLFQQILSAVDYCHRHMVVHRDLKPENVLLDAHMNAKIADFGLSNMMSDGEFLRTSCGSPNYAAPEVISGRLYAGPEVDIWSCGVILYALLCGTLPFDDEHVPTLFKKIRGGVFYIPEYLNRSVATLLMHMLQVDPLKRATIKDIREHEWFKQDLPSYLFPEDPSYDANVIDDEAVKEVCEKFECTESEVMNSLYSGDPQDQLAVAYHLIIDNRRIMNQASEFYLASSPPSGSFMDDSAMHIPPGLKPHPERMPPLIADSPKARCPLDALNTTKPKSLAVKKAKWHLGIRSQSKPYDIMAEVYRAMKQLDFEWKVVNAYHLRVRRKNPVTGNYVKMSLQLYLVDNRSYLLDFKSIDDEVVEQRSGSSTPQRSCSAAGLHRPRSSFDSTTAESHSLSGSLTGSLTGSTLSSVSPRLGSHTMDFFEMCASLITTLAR

[14] = molecular target: BMP-2-inducible protein kinase (Homo sapiens) (UniProt Q9NSY1); assay: Selectivity interaction (Ambit KINOMEscan and KiNATiv profiling in Jurkat cells) EUB0000090b BMP2K; assay type: cell-based; details: at 1 µM

## COc1cc(N(C)c2ccnc3ccc(C(F)(F)F)cc23)cc(OC)c1OC
[1]
  % binding: 82%

## CCc1ccccc1C(=O)Nc1n[nH]c2c(C)c(F)c(C3C(C#N)=C(C)N(C)C(C)=C3C#N)cc12 [BAY-3827]
[2]
  % of control: 0%

## Nc1cnc(N2CCc3cc(S(=O)(=O)Nc4c(F)cc(Cl)cc4F)cc(N4CCCC4=O)c32)nc1 [TP-020n]
[3]
  % of control: 71%

## O=C(NOC[C@H](O)CO)c1ccc(F)c(F)c1Nc1ccc(I)cc1F
[4]
  % of control: 66%
[5]
  % of control: 100%

## Cc1cc([C@@H](C)Nc2ccccc2C(=O)O)c2nc(N3CCOCC3)cc(=O)n2c1 [AZD-6482]
[6]
  % of control: 85%

## Cc1cc(C)cc([C@@H]2c3cc(C)ccc3NC(=O)CN2C(=O)c2ccc(Br)s2)c1
[7]; at 1 µM
  % of activity: 100%
[7]; at 10 µM
  % of activity: 101%

## N#Cc1cccc(-c2c[nH]c3ncnc(N4CCOCC4)c23)c1
[8]
  % of inhibition: -16%

## CNC(=O)Nc1ccc(-c2nc(N3CC4CCC(C3)O4)c3cnn(C4CCC5(CC4)OCCO5)c3n2)cc1
[9]
  % of control: 100%
[10]
  % of control: 99%
[11]
  % of control: 5.7%

## CC[C@@H]1[C@H](F)C(=O)N[C@@H]1COc1nccc2cc(C(N)=O)c(OC)cc12 [ZIMLOVISERTIB]
[12]
  % of inhibition: 11.6%

## CCC(=O)N1CCN(c2ccc(-n3c(=O)ccc4cnc5ccc(-c6cnc7ccccc7c6)cc5c43)cc2C(F)(F)F)CC1
[13]
  % of control: 74%

## CN(C)C/C=C/C(=O)Nc1ccc(C(=O)N2CCCC(Nc3ncc(Cl)c(-c4c[nH]c5ccccc45)n3)C2)cc1 (stereo not given)
[14]
  % of control: 100%
